According to patent publication US20230066156A1, “6-SUBSTITUTED, 22-CYANO HYODEOXYCHOLANIC ANALOGUES AND USES THEREOF” (PRECISION BIO-THERAPEUTICS S.R.L., priority 2019, published 2023):

System: TNBS-induced colitis
Test: TNBS-induced colitis in Gpbar1+/+ and Gpbar1-/- mice
Type: in vivo
Details: for development and severity of colitis assessed by body weight lost, CDAI and histological sections: 30 mg/kg daily by o.s., FIG. 2A-C
Experimental: Because macrophages are one of the most abundant leucocytes in the intestinal mucosa and are implicated in the pathogenesis of IBDs (Inflammatory bowel diseases), the effect of PBT110B was investigated in a TNBS-induced colitis (2,4,6-trinitrobenzene sulfonic acid-induced) in Gpbar1+/+ and Gpbar1-/- mice. Gpbar1+/+ and Gpbar1-/- mice were treated with TNBS alone or in combination PBT110B (30 mg/kg). […] In addition, the expression of pro- and anti-inflammatory cytokines in the colon of these animals (FIG. 3) was analyzed. Gpbar1^+/+ and Gpbar1^-/- mice were treated with TNBS alone or in combination PBT110B (30 mg/kg). Values are normalized relative to Gapdh mRNA and are expressed as mean±SEM (n=5); ^#p<0.05. GPBAR1 null mice on C57BL/6NCrl background, and C57BL/6NCrl congenic littermates were originally donated by Dr. […] (Schering-Plough Research Institute, Kenilworth). The colonies were maintained in the animal facility of University of Perugia. Mice were housed under controlled temperatures (22° C.) and photoperiods (12:12-hour light/dark cycle), allowed unrestricted access to standard mouse chow and tap water and allowed to acclimate to these conditions for at least 5 days before inclusion in an experiment. The study was conducted in agreement with the Italian law and the protocol was approved by ethical committee of University of Perugia and by a National Committee of Italian Ministry of Health permit n° 1126/2016-PR. The health and body conditions of the animals were monitored daily by the veterinarian in the animal facility. The study protocol caused minor suffering, however, animals that lost more than 25% of the initial body weight were euthanized. Colitis was induced in mice by TNBS. Mice were fasted for 12 h (day -1) and the day after (day 0) mice were anesthetized, and a 3.5 F catheter inserted into the colon such that the tip was 3 cm proximal to the anus. To induce colitis, 1 mg of 2,4,6-trinitrobenzenesulfonic acid TNBS (Sigma Chemical Co, St Louis, Mo.) in 50% ethanol was administered via catheter into the lumen using a 1 ml syringe (injection volume of 200 μL); control mice received 50% ethanol alone. Animals were monitored daily. At the end of the experiments, the surviving mice were sacrificed and the colon was excised, weighed, and evaluated for macroscopic damage. In some groups of mice, PBT110B dissolved in nitrocellulose 1% was administered daily also by o.s. at the concentration of 30 mg/kg of body weight The severity of colitis was measured each day for each mouse by assessing the body weight, the fecal blood and stool consistency. Each parameter was scored from 0 to 4 and the sum represents the Colitis Disease Activity Index (CDAI). The scoring system was as following: percent of body weight loss: none=0; 1-5%=1; 5-10%=2; 10-20%=3; >20%=4. Stool consistency: normal=0; soft but still formed=1; very soft=2; diarrhea=3; liquid stools that stick to the anus or anal occlusion=4. Fecal blood: none=0; visible in the stool=2; severe bleeding with fresh blood around the anus and very present in the stool=4. Samples of distal colon (2-3 cm from the anus) were fixed in buffered formalin, cut into 5-μm-thick sections (150 μm between each section, four to eight per fragment per colon), and stained with H&E. Colon samples were immediately frozen in liquid nitrogen and stored at -80° C. until used, mechanically homogenated with the aid of a pestle, and the obtained materials re-suspended in 1 ml of Trizol (Thermo ScientificTM). […]

[1] = wild-type mice, 30 mg/kg, Real-Time PCR, FIG. 3

CC[C@]1(O)C[C@H]2[C@@H]3CC[C@H]([C@H](C)CC#N)[C@@]3(C)CC[C@@H]2[C@@]2(C)CC[C@@H](O)C[C@@H]12 [PBT110B, 3α,6α-dihydroxy-6β-ethyl-24-nor-5β-cholan-23-nitrile]
development and severity of colitis assessed by body weight lost, CDAI and histological sections (Gpbar1+/+ mice): attenuated | development and severity of colitis assessed by body weight lost, CDAI and histological sections (Gpbar1-/- mice): failed to do the same | beneficial effects on colon cytokine expression (pro-inflammatory cytokines, IL-10) (mice lacking the receptor (Gpbar1-/-), 30 mg/kg, FIG. 3): lost | expression of pro-inflammatory cytokines (Il-6, Il-1β, TNF-α) in the colon [1]: reducing | expression of the anti-inflammatory cytokine IL-10 in the colon [1]: increasing
